Test results: patent US20260217701A1, “SELECTIVE BET INHIBITORS AND USES THEREOF” (Tay Therapeutics Limited, priority 2022, published 2026)
Where “and” joins values, the source holds several entries; their conditions need not be identical. Equal values may be shown once.

Test system: collagen-induced arthritis
Assay: Collagen-induced arthritis (CIA) model: clinical scores and paw volume; on Animal paw volume percent change (%): reference of the scale not given here; on Average animal paw volume percent change (%): reference of the scale not given here
Type: in vivo, Lewis rats
Settings: for Overall Clinical Score: individual animals 1-8; for Animal paw volume / Animal paw volume percent change (%): individual animals
[1] = Day 15, CIA + Compound A 3 mg/kg
[2] = Day 15, CIA + Compound A 10 mg/kg
[3] = Day 18, L paw, group 5 CIA + Compound A 1 mg/kg
[4] = Day 18, L paw, group 6 CIA + Compound A 3 mg/kg
[5] = Day 18, L paw, group 7 CIA + Compound A 10 mg/kg
[6] = Day 18, R paw, group 5 CIA + Compound A 1 mg/kg
[7] = Day 18, R paw, group 6 CIA + Compound A 3 mg/kg
[8] = Day 18, R paw, group 7 CIA + Compound A 10 mg/kg
[9] = Day 18, CIA + Compound A 1 mg/kg
[10] = Day 18, CIA + Compound A 3 mg/kg
[11] = Day 18, CIA + Compound A 10 mg/kg
[12] = Day 19, L paw, group 5 CIA + Compound A 1 mg/kg
[13] = Day 19, L paw, group 6 CIA + Compound A 3 mg/kg
[14] = Day 19, L paw, group 7 CIA + Compound A 10 mg/kg
[15] = Day 19, R paw, group 5 CIA + Compound A 1 mg/kg
[16] = Day 19, R paw, group 6 CIA + Compound A 3 mg/kg
[17] = Day 19, R paw, group 7 CIA + Compound A 10 mg/kg
[18] = Day 19, CIA + Compound A 1 mg/kg
[19] = Day 19, CIA + Compound A 3 mg/kg
[20] = Day 21, L paw, group 5 CIA + Compound A 1 mg/kg
[21] = Day 21, L paw, group 6 CIA + Compound A 3 mg/kg
[22] = Day 21, L paw, group 7 CIA + Compound A 10 mg/kg
[23] = Day 21, R paw, group 5 CIA + Compound A 1 mg/kg

Cn1cc(-c2ccccc2)c(-c2cn(C)c(=O)c3[nH]c(-c4cnn(C(F)(F)F)c4)cc23)cc1=O [Compound A, 6-methyl-4-(1-methyl-2-oxo-5-phenyl-1,2-dihydropyridin-4-yl)-2-(1-(trifluoromethyl)-1H-pyrazol-4-yl)-1,6-dihydro-7H-pyrrolo[2,3-c]pyridin-7-one]
Average detailed clinical score, score [1]: 1
Average overall clinical score [1]: 1
Overall Clinical Score (Day 15, CIA + Compound A 3 mg/kg, 3 mg/kg): 0 (2×) and 1
Average detailed clinical score, left forelimb [2]: 0
Average detailed clinical score, left hind limb [2]: 0.75
Average detailed clinical score, right forelimb [2]: 0
Average detailed clinical score, right hind limb [2]: 0.5
Average detailed clinical score, score [2]: 1.25
Average overall clinical score [2]: 1
Animal paw volume (Day 15, L paw, Group 5 (CIA + Compound A 1 mg/kg), 1 mg/kg): 1.45 mL and 1.84 mL and 1.77 mL and 1.64 mL and 1.48 mL and 1.66 mL and 1.92 mL
Animal paw volume (Day 15, L paw, Group 6 (CIA + Compound A 3 mg/kg), 3 mg/kg): 1.49 mL (2×) and 1.59 mL and 1.48 mL and 1.54 mL and 1.68 mL
Animal paw volume (Day 15, R paw, Group 5 (CIA + Compound A 1 mg/kg), 1 mg/kg): 1.42 mL and 1.81 mL and 1.56 mL and 1.65 mL and 1.50 mL and 1.72 mL and 1.59 mL
Animal paw volume (Day 15, R paw, Group 6 (CIA + Compound A 3 mg/kg), 3 mg/kg): 1.39 mL and 1.41 mL and 1.46 mL and 1.42 mL and 1.75 mL and 1.57 mL
Average animal paw volume [3]: 1.98 mL
Average animal paw volume percent change (%) [3]: 49.46%
Average animal paw volume [4]: 1.64 mL
Average animal paw volume percent change (%) [4]: 24.36%
Average animal paw volume [5]: 1.61 mL
Average animal paw volume percent change (%) [5]: 22.68%
Animal paw volume percent change (%) (Day 18, L paw, group 5 CIA + Compound A 1 mg/kg, 1 mg/kg): 55.17% and 87.60% and 51.66% and 66.42% and 24.72% and 52.08% and 52.83%
Animal paw volume percent change (%) (Day 18, L paw, group 6 CIA + Compound A 3 mg/kg, 3 mg/kg): 29.66% and 54.47% and 6.08% and 10.26% and 18.39% and 23.97%
Average animal paw volume [6]: 1.91 mL
Average animal paw volume percent change (%) [6]: 44.06%
Average animal paw volume [7]: 1.78 mL
Average animal paw volume percent change (%) [7]: 35.37%
Average animal paw volume [8]: 1.76 mL
Average animal paw volume percent change (%) [8]: 34.04%
Animal paw volume percent change (%) (Day 18, R paw, group 5 CIA + Compound A 1 mg/kg, 1 mg/kg): 59.00% and 89.96% and 33.45% and 53.58% and 18.45% and 55.13% and 36.98%
Animal paw volume percent change (%) (Day 18, R paw, group 6 CIA + Compound A 3 mg/kg, 3 mg/kg): 61.13% and 22.57% and 44.15% and 30.48% and 50.58% and 23.22%
Average detailed clinical score, left forelimb [9]: 0.50
Average detailed clinical score, left hind limb [9]: 3.88
Average detailed clinical score, right forelimb [9]: 0.50
Average detailed clinical score, right hind limb [9]: 3.88
Average detailed clinical score, score [9]: 8.75
Average overall clinical score [9]: 4
Overall Clinical Score (Day 18, CIA + Compound A 1 mg/kg, 1 mg/kg): 0 and 5 (3×) and 7 and 6 and 2 and 4
Average detailed clinical score, left forelimb [10]: 0.00
Average detailed clinical score, left hind limb [10]: 2.50
Average detailed clinical score, right forelimb [10]: 0.88
Average detailed clinical score, right hind limb [10]: 2.25
Average detailed clinical score, score [10]: 5.63
Average overall clinical score [10]: 3
Overall Clinical Score (Day 18, CIA + Compound A 3 mg/kg, 3 mg/kg): 4 and 3 and 2
Average detailed clinical score, left forelimb [11]: 0.00
Average detailed clinical score, left hind limb [11]: 1.13
Average detailed clinical score, right forelimb [11]: 0.00
Average overall clinical score [11]: 3
Animal paw volume (Day 18, L paw, Group 5 (CIA + Compound A 1 mg/kg), 1 mg/kg): 2.03 mL (2×) and 2.42 mL and 2.06 mL and 2.21 mL and 1.67 mL and 2.02 mL
Animal paw volume (Day 18, L paw, Group 6 (CIA + Compound A 3 mg/kg), 3 mg/kg): 1.71 mL and 1.99 mL and 1.40 mL and 1.51 mL and 1.55 mL and 1.66 mL
Animal paw volume (Day 18, R paw, Group 5 (CIA + Compound A 1 mg/kg), 1 mg/kg): 2.08 mL and 2.46 mL and 1.84 mL and 2.04 mL (2×) and 1.61 mL and 1.82 mL
Animal paw volume (Day 18, R paw, Group 6 (CIA + Compound A 3 mg/kg), 3 mg/kg): 2.14 mL and 1.58 mL and 1.91 mL and 1.76 mL and 1.95 mL and 1.65 mL
Average animal paw volume [12]: 1.97 mL
Average animal paw volume percent change (%) [12]: 49.19%
Average animal paw volume [13]: 1.70 mL
Average animal paw volume percent change (%) [13]: 29.54%
Average animal paw volume [14]: 1.66 mL
Average animal paw volume percent change (%) [14]: 26.62%
Animal paw volume percent change (%) (Day 19, L paw, group 5 CIA + Compound A 1 mg/kg, 1 mg/kg): 55.17% and 87.60% and 49.82% and 69.06% and 22.47% and 52.08% and 53.58%
Animal paw volume percent change (%) (Day 19, L paw, group 6 CIA + Compound A 3 mg/kg, 3 mg/kg): 43.35% and 54.47% and 22.81% and 10.99% and 29.12%
Average animal paw volume [15]: 1.92 mL
Average animal paw volume percent change (%) [15]: 44.50%
Average animal paw volume [16]: 1.78 mL
Average animal paw volume percent change (%) [16]: 35.81%
Average animal paw volume [17]: 1.75 mL
Average animal paw volume percent change (%) [17]: 33.14%
Animal paw volume percent change (%) (Day 19, R paw, group 5 CIA + Compound A 1 mg/kg, 1 mg/kg): 68.20% and 87.26% and 33.45% and 54.34% and 17.71% and 54.75% and 35.85%
Animal paw volume percent change (%) (Day 19, R paw, group 6 CIA + Compound A 3 mg/kg, 3 mg/kg): 61.89% and 25.68% and 43.02% and 29.74% and 52.90%
Average detailed clinical score, left forelimb [18]: 1.13
Average detailed clinical score, left hind limb [18]: 4.00
Average detailed clinical score, right forelimb [18]: 1.00
Average detailed clinical score, right hind limb [18]: 3.75
Average detailed clinical score, score [18]: 9.88
Average overall clinical score [18]: 5
Overall Clinical Score (Day 19, CIA + Compound A 1 mg/kg, 1 mg/kg): 0 and 6 (5×) and 8 and 3
Average detailed clinical score, left forelimb [19]: 0.00
Average detailed clinical score, left hind limb [19]: 2.38
Average detailed clinical score, right forelimb [19]: 1.13
Average detailed clinical score, right hind limb [19]: 2.88
Average detailed clinical score, score [19]: 6.38
Average overall clinical score [19]: 4
Overall Clinical Score (Day 19, CIA + Compound A 3 mg/kg, 3 mg/kg): 5 and 4 (2×)
Average overall clinical score (Day 19, CIA + Compound A 10 mg/kg): 4
Animal paw volume (Day 19, L paw, Group 5 (CIA + Compound A 1 mg/kg), 1 mg/kg): 2.03 mL (2×) and 2.42 mL and 2.24 mL and 1.64 mL and 2.02 mL and 2.04 mL
Animal paw volume (Day 19, L paw, Group 6 (CIA + Compound A 3 mg/kg), 3 mg/kg): 1.89 mL and 1.99 mL and 1.62 mL and 1.52 mL and 1.69 mL
Animal paw volume (Day 19, R paw, Group 5 (CIA + Compound A 1 mg/kg), 1 mg/kg): 2.20 mL and 2.43 mL and 1.84 mL and 2.05 mL and 1.60 mL and 2.04 mL and 1.80 mL
Animal paw volume (Day 19, R paw, Group 6 (CIA + Compound A 3 mg/kg), 3 mg/kg): 2.15 mL and 1.62 mL and 1.90 mL and 1.75 mL and 1.98 mL
Average animal paw volume [20]: 2.01 mL
Average animal paw volume percent change (%) [20]: 52.06%
Average animal paw volume [21]: 1.73 mL
Average animal paw volume percent change (%) [21]: 31.54%
Average animal paw volume [22]: 1.72 mL
Average animal paw volume percent change (%) [22]: 31.20%
Animal paw volume percent change (%) (Day 21, L paw, group 5 CIA + Compound A 1 mg/kg, 1 mg/kg): 56.70% and 89.53% and 53.14% and 70.94% and 22.47% and 56.60% and 61.89%
Animal paw volume percent change (%) (Day 21, L paw, group 6 CIA + Compound A 3 mg/kg, 3 mg/kg): 46.01% and 70.04% and 24.33% and 10.99% and 37.55%
Average animal paw volume [23]: 2.01 mL
Average animal paw volume percent change (%) [23]: 51.46%
Average animal paw volume (Day 21, R paw, group 6 CIA + Compound A 3 mg/kg): 1.82 mL
